16 compounds from patent US8629167B2, “Selective androgen receptor modulators” (Radius Health, Inc., priority 2008, dated 2014) can be followed below.

One assay has as its target androgen receptor (Rattus norvegicus (Rat), UniProt P15207). As to the kind of experiment: androgen receptor binding assay (fluorescence polarization, AR-Fluormone complex). On the procedure: The assay was performed as specified by the manufacturer (Invitrogen, Madison, Wis.). Briefly, 1 μl of 10 mM compound was added to 500 μl of AR screening buffer in a 1.5 ml eppendorf tube to make a 2×10^−5 M stock. 10-fold serial dilutions of the test compounds were prepared ranging in concentration from 10^−5M to 10^−12 M. Each dilution was added in triplicate to a black 384-microtiter plate. The test compounds will be diluted 2-fold in the final reaction. 2×AR-Fluormone™ complex was prepared with 2 nM Flourmone AL Green™ and 30 nM AR. 25 μl of 2× complex was aliquoted to each reaction well, such that the final reaction volume was 50 μl per well. Plate was sealed with a foil cover and incubated in the dark at room temperature for 4 h. Polarization values for each well were measured. The polarization values were plotted against the concentration of the test compound. […] As a control, a competition curve for R1881 (methyltrienolone) was performed for each assay. Curve Fitting was performed using GraphPad Prism® software from GraphPad™ Software Inc. Binding data are reported as a single determination if the experiment was run once only and as the average of experiments if the binding experiment was performed two or more times with that compound.
Were multiple data points have been taken, the value reported is the average of the multiple determinations.
A general note: In fluorescence polarisation assays a small probe gives low polarisation when free and higher when bound to something large.

Assay [1] deals with young, orchidectomized rats. Put plainly: Rat Herschberger assay (in vivo androgen and anabolic activity). As to conditions: organ weight, 10 mg/kg (po), treated for 4 days. From the text: The following is a typical procedure of the in vivo evaluation of the selective androgens of this invention. In particular, this assay looks primarily at the ability of the selective androgens of this invention to increase muscle size in an immature, castrated rat. In addition, androgenic effects are looked at primarily by weighing the prostate and seminal vesicles. Selective compounds will show a greater increase in the levator ani relative to the prostate and seminal vesicles when compared to testosterone treated, castrated animals or to intact animals that have not been treated. Immature Sprague Dawley male rats were obtained Charles River Laboratories (Stoneridge, N.Y.). All animals were maintained in a temperature and humidity controlled room with a 12 hr light: 12 hr dark cycle, with ad lib access to food (TD 291615, Teklad, Madison, Wis.) and water. Rats were anesthetized and orchidectomized (GDX) or sham surgery (SHAM) was performed. After a 7-day recovery period, the animals were randomized according to weight and assigned to treatment groups (n=5), SHAM, OVX+vehicle, OVX+Cpd treated. Testosterone propionate (TP 1 mg/kg in 5% DMSO/95% corn oil) was administered by once daily subcutaneous injections, while the compounds of the invention are dosed in vehicle (typically 20% cyclodextrin or 0.5% carboxymethylcellulose) was administered by once daily oral gavage. The rats were then dosed once daily for 4 days. All animals were euthanized via carbon dioxide inhalation 24 hs after the last dose. The prostate, seminal vesicle and levator ani and bulba cavernous (LABC) tissues were removed, weighed and recorded. Body weights were recorded for each animal at baseline and at sacrifice.
Prostate, seminal vesicle and levator ani bulbus cavernosus (LABC) are all represented as % relative to sham. After sacrifice, organ weights of young, orchidectomized rats treated with compound for 4 days are compared to sham operated animals.

Setting [2] is: single determination or average of multiple determinations, read-out: Binding IC50 (nM), Compound AR-Binding Affinity.

The structures appear in SMILES notation. Where two headings read alike, the source gives them in different places.

Sequence of androgen receptor (P15207 whole entry, looked up): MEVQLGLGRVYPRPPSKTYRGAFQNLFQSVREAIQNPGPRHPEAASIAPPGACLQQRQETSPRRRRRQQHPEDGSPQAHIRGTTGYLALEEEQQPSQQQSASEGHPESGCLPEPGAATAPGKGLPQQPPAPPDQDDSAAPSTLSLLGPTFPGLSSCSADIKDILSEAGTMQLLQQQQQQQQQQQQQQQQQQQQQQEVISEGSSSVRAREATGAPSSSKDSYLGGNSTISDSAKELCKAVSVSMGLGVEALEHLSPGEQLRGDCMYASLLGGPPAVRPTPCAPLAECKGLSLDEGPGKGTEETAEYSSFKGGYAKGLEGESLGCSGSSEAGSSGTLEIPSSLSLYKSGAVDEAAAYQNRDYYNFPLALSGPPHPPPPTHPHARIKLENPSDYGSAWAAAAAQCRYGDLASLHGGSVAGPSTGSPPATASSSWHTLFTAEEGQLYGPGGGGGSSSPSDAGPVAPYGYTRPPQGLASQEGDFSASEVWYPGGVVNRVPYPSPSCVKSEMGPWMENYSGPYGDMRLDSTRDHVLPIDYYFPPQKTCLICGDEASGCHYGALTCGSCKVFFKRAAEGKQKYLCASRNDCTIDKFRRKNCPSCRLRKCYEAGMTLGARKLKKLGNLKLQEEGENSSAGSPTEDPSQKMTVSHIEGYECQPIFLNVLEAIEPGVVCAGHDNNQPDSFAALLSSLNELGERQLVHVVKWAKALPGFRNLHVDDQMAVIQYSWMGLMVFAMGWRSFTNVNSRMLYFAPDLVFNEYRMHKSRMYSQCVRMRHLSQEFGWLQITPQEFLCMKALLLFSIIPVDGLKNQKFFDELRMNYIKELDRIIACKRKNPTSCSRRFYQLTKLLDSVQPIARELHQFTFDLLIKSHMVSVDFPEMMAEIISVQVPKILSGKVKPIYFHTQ

On to `CCC(=O)O[C@@H](C)[C@@H](Nc1ccc(C#N)c(Cl)c1C)c1nnc(-c2ccc(C#N)cc2)o1` [Example 86, (1R,2S)-1-(3-Chloro-4-cyano-2-methylphenylamino)-1-(5-(4-cyanophenyl)-1,3,4-oxadiazol-2-yl)propan-2-yl propionate], for which the concentration for half-maximal inhibition (IC50) on androgen receptor worked out at 120 nM.

For `CCC(=O)O[C@@H](C)[C@@H](Nc1ccc(C#N)c(Cl)c1C)c1nnc(-c2ccccc2)o1` [Example 84, (1R,2S)-1-(3-Chloro-4-cyano-2-methylphenylamino)-1-(5-phenyl-1,3,4-oxadiazol-2-yl)propan-2-yl propionate], the IC50 at androgen receptor worked out at 25 nM.

In turn, `Cc1c(N[C@@H](c2nnc(-c3ccccc3)o2)[C@H](C)OS(N)(=O)=O)ccc(C#N)c1Cl` [Example 90, (1R,2S)-1-(3-Chloro-4-cyano-2-methylphenylamino)-1-(5-phenyl-1,3,4-oxadiazol-2-yl)propan-2-yl sulfamate] returned a half-maximal inhibitory concentration (IC50) on androgen receptor of 20 nM.

Turning to `C[C@H](O)[C@@H](Nc1ccc(C#N)c(Cl)c1)c1nnc(-c2ccc(S(C)(=O)=O)cc2)o1` [Example 48, 2-Chloro-4-((1R,2S)-2-hydroxy-1-(5-(4-(methylsulfonyl)phenyl)-1,3,4-oxadiazol-2-yl)propylamino)benzonitrile], on androgen receptor (setting [2]), the IC50 is > 1000 nM.

In the case of `[2H]c1ccc(-c2nnc([C@H](Nc3ccc(C#N)c(Cl)c3C)[C@H](C)O)o2)cc1` [Example 97, 2-Chloro-4-((1R,2S)-1-(5-(4-deuterophenyl)-1,3,4-oxadiazol-2-yl)-2-hydroxypropylamino)-3-methylbenzonitrile], the 50% inhibitory concentration (IC50) on androgen receptor stood at 18 nM.

Compound `CCCC(=O)O[C@@H](C)[C@@H](Nc1ccc(C#N)c(Cl)c1C)c1nnc(-c2ccc(C#N)cc2)o1` [Example 85, (1R,2S)-1-(3-Chloro-4-cyano-2-methylphenylamino)-1-(5-(4-cyanophenyl)-1,3,4-oxadiazol-2-yl)propan-2-yl butyrate] showed an IC50 at androgen receptor of 10 nM.

Turning to `Cc1c(N[C@@H](c2nnc(-c3ccccc3)o2)[C@@H](C)O)ccc(C#N)c1Cl` [Example 3, 2-chloro-4-((1R,2R)-2-hydroxy-1-(5-phenyl-1,3,4-oxadiazol-2-yl)propylamino)-3-methylbenzonitrile], in assay [1], the “LABC (levator ani bulbus cavernosus), % relative to sham” value was 99%; the “Prostate, % relative to sham” value was 43%; the “Seminal vesicle, % relative to sham” value came to 37%.

With `Cc1c(N[C@H](c2ccc(-c3nnco3)cc2)[C@@H](C)OS(N)(=O)=O)ccc(C#N)c1Cl` [Example 94, (1R,2R)-1-(3-Chloro-4-cyano-2-methylphenylamino)-1-(4-(1,3,4-oxadiazol-2-yl)phenyl sulfamate)propan-2-yl sulfamate], on androgen receptor (setting [2]), the 50% inhibitory concentration (IC50) is > 1000 nM.

At androgen receptor, `Cc1c(N[C@@H](c2nnc(-c3ccc(OS(N)(=O)=O)cc3)o2)[C@H](C)O)ccc(C#N)c1Cl` [Example 93, 4-(5-((1R,2S)-1-(3-Chloro-4-cyano-2-methylphenylamino)-2-hydroxypropyl)-1,3,4-oxadiazol-2-yl)phenyl sulfamate] came in with an IC50 of 25 nM.

Take `CC(=O)O[C@@H](C)[C@@H](Nc1ccc(C#N)c(Cl)c1C)c1nnc(-c2ccccc2)o1` [Example 76, (1R,2S)-1-(3-chloro-4-cyano-2-methylphenylamino)-1-(5-phenyl-1,3,4-oxadiazol-2-yl)propan-2-yl acetate]: the IC50 on androgen receptor was determined as 15 nM.

At androgen receptor, `C[C@H](O)[C@@H](Nc1ccc(C#N)c2scc(Cl)c12)c1nnc(-c2ccc(C#N)cc2)o1` [Example 95, 3-Chloro-4-((1R,2S)-1-(5-(4-cyanophenyl)-1,3,4-oxadiazol-2-yl)-2-hydroxypropylamino)benzo[b]thiophene-7-carbonitrile] showed a concentration for half-maximal inhibition (IC50) of 1 nM.

Consider `Cc1c(N[C@@H](c2nnc(-c3ccccc3)o2)[C@H](C)O)ccc(C#N)c1Cl` [Example 1, 2-chloro-4-((1R,2S)-2-hydroxy-1-(5-phenyl-1,3,4-oxadiazol-2-yl)propylamino)-3-methylbenzonitrile], for which, in assay [1], the “LABC (levator ani bulbus cavernosus), % relative to sham” value amounted to 85%; the “Prostate, % relative to sham” value was found to be 46%; the “Seminal vesicle, % relative to sham” value came out at 69%.

`CC(=O)O[C@@H](C)[C@@H](Nc1ccc(C#N)c(Cl)c1C)c1nnc(-c2ccc(C#N)cc2)o1` [Example 88, (1R,2S)-1-(3-Chloro-4-cyano-2-methylphenylamino)-1-(5-(4-cyanophenyl)-1,3,4-oxadiazol-2-yl)propan-2-yl acetate] showed a half-inhibitory concentration (IC50) on androgen receptor of 110 nM.

Turning to `CC(=O)Oc1ccc(-c2nnc([C@H](Nc3ccc(C#N)c(Cl)c3C)[C@H](C)OC(C)=O)o2)cc1` [Example 73, 4-(5-((1R,2S)-2-Acetoxy-1-(3-chloro-4-cyano-2-methylphenylamino)propyl)-1,3,4-oxadiazol-2-yl)phenyl acetate], the concentration for half-maximal inhibition (IC50) on androgen receptor came to 30 nM.

For the compound `Cc1c(N[C@@H](c2nnc(-c3ccc(NC(=O)c4ccccc4)cc3)o2)[C@H](C)O)ccc(C#N)c1Cl` [Example 77, N-(4-(5-((1R,2S)-1-(3-Chloro-4-cyano-2-methylphenylamino)-2-hydroxypropyl)-1,3,4-oxadiazol-2-yl)phenyl)benzamide], on androgen receptor (setting [2]), the IC50 was determined as 1000 nM.

Compound `Cc1c(N[C@@H](c2nnc(-c3ccc4[nH]ccc4c3)o2)[C@H](C)O)ccc(C#N)c1Cl` [Example 98, 4-((1R,2S)-1-(5-(1H-Indol-5-yl)-1,3,4-oxadiazol-2-yl)-2-hydroxypropylamino)-2-chloro-3-methylbenzonitrile] yielded a half-maximal inhibitory concentration (IC50) on androgen receptor of 80 nM.

What is called IC50 is the point on the concentration scale where inhibition reaches its midpoint.
